Patent publication US8252939B2, “Sulfoximinamide compounds for combating animal pests” (BASF SE, priority 2008, dated 2012)

Legend:
Assay type in all cases: in vivo
Nephotettix virescens = assay: Rice green leafhopper (Nephotettix virescens), sprayed rice seedlings; conditions: after 72 hours, read-out: mortality in comparison with untreated controls
Method: Rice seedlings were cleaned and washed 24 hours before spraying. The active compounds were formulated in 50:50 acetone:water (vol:vol), and 0.1% vol/vol surfactant (EL 620) was added. Potted rice seedlings were sprayed with 5 ml test solution, air dried, placed in cages and inoculated with 10 adults. Treated rice plants were kept at about 28-29° C. and relative humidity of about 50-60%. Percent mortality was recorded after 72 hours.

Megoura viciae = assay: Vetch aphid (Megoura viciae) contact or systemic, broad bean leaf disks; conditions: foliar, 120 h, after 5 days, read-out: mortality in comparison with untreated controls
Method: For evaluating control of vetch aphid (Megoura viciae) through contact or systemic means the test unit consisted of 24-well-microtiter plates containing broad bean leaf disks.
The compounds were formulated using a solution containing 75% v/v water and 25% v/v DMSO. Different concentrations of formulated compounds were sprayed onto the leaf disks at 2.5 μl, using a custom built micro atomizer, at two replications. After application, the leaf disks were air-dried and 5-8 adult aphids placed on the leaf disks inside the microtiter plate wells. The aphids were then allowed to suck on the treated leaf disks and incubated at about 23±1° C. and about 50±5% relative humidity for 5 days. Aphid mortality and fecundity was then visually assessed.

aphis craccivora = assay: Cowpea aphid (aphis craccivora), sprayed potted cowpea plants; conditions: population reduction assessed after 24, 72, and 120 hours, read-out: mortality in comparison with untreated controls
Method: The active compound is dissolved at the desired concentration in a mixture of 1:1 (vol:vol) distilled water:acetone. The test solution is prepared at the day of use.
Potted cowpea plants colonized with approximately 100-150 aphids of various stages were sprayed after the pest population has been recorded. Population reduction was assessed after 24, 72, and 120 hours.

Anthonomus grandis = assay: Boll weevil (Anthonomus grandis) egg and larval mortality, microtiter plate insect diet; conditions: 120 h, egg and larval mortality after 5 days, read-out: mortality in comparison with untreated controls
Method: For evaluating control of boll weevil (Anthonomus grandis) the test unit consisted of 24-well-microtiter plates containing an insect diet and 20-30 A. grandis eggs.
The compounds were formulated using a solution containing 75% v/v water and 25% v/v DMSO. Different concentrations of formulated compounds were sprayed onto the insect diet at 20 μl, using a custom built micro atomizer, at two replications. After application, microtiter plates were incubated at about 23±1° C. and about 50±5% relative humidity for 5 days. Egg and larval mortality was then visually assessed.

Aphis gossypii = assay: Cotton aphid (Aphis gossypii) I, cotton cotyledon dip; conditions: 120 h, after 5 days, read-out: mortality in comparison with untreated controls
Description: The active compounds were formulated in 50:50 (vol:vol) acetone:water and 100 ppm Kinetica™ surfactant.
Cotton plants at the cotyledon stage (one plant per pot) were infested by placing a heavily infested leaf from the main colony on top of each cotyledon. The aphids were allowed to transfer to the host plant overnight, and the leaf used to transfer the aphids was removed. The cotyledons were dipped in the test solution and allowed to dry. After 5 days, mortality counts were made.

Myzus persicae [1] = assay: Green peach aphid (Myzus persicae) I, systemic, artificial diet under membrane; conditions: 72 h, after 3 days, read-out: mortality in comparison with untreated controls
Description: For evaluating control of green peach aphid (Myzus persicae) through systemic means the test unit consisted of 96-well-microtiter plates containing liquid artificial diet under an artificial membrane.
The compounds were formulated using a solution containing 75% v/v water and 25% v/v DMSO. Different concentrations of formulated compounds were pipetted into the aphid diet, using a custom built pipetter, at two replications.
After application, 5-8 adult aphids were placed on the artificial membrane inside the microtiter plate wells. The aphids were then allowed to suck on the treated aphid diet and incubated at about 23±1° C. and about 50±5% relative humidity for 3 days. Aphid mortality and fecundity was then visually assessed.

Myzus persicae [2] = assay: Green peach aphid (Myzus persicae) II, pepper plant leaf dip; conditions: foliar, 120 h, after 5 days, read-out: mortality in comparison with untreated controls
Description: The active compounds were formulated in 50:50 acetone:water (vol:vol) and 100 ppm Kinetica™ surfactant.
Pepper plants in the 2nd leaf-pair stage (variety ‘California Wonder’) were infested with approximately 40 laboratory-reared aphids by placing infested leaf sections on top of the test plants. The leaf sections were removed after 24 hr. The leaves of the intact plants were dipped into gradient solutions of the test compound and allowed to dry. Test plants were maintained under fluorescent light (24 hour photoperiod) at about 25° C. and about 20-40% relative humidity. Aphid mortality on the treated plants, relative to mortality on check plants, was determined after 5 days.

dichromothrips corbetti = assay: Orchid thrips (dichromothrips corbetti) floral-immersion; conditions: 96 h, after 4 days, read-out: mortality in comparison with untreated controls
Method: Dichromothrips corbetti adults used for bioassay were obtained from a colony maintained continuously under laboratory conditions. For testing purposes, the test compound was diluted to a concentration of 300 ppm (wt compound: vol diluent) in a 1:1 mixture of acetone:water (vol:vol), plus 0.01% vol/vol Kinetic® surfactant.
Thrips potency of each compound was evaluated by using a floral-immersion technique. Plastic petri dishes were used as test arenas. All petals of individual, intact orchid flowers were dipped into treatment solution and allowed to dry. Treated flowers were placed into individual petri dishes along with 10-15 adult thrips. The petri dishes were then covered with lids. All test arenas were held under continuous light and a temperature of about 28° C. for duration of the assay. After 4 days, the numbers of live thrips were counted on each flower, and along inner walls of each petri dish. The level of thrips mortality was extrapolated from pre-treatment thrips numbers.

N#CN=S1(=O)CCCN1Cc1ccc(Cl)nc1 (centres unmarked) [compound 1]
> 75%: mortality at 300 ppm (Nephotettix virescens) | mortality at 2500 ppm (Megoura viciae) | mortality at 300 ppm (aphis craccivora) | mortality at 2500 ppm (Anthonomus grandis) | mortality at 300 ppm (Aphis gossypii) | mortality at 300 ppm (Myzus persicae [1]) | mortality at 300 ppm (Myzus persicae [2]) | mortality at 300 ppm (dichromothrips corbetti)

CS(=O)(=NC#N)NCc1ccc(Cl)nc1 (centres unmarked) [compound 90]
> 75%: mortality at 2500 ppm (Megoura viciae) | mortality at 300 ppm (aphis craccivora) | mortality at 300 ppm (Aphis gossypii) | mortality at 300 ppm (Myzus persicae [2])

N#CN=S1(=O)CCCN1c1cnc(Cl)c(Cl)c1 (centres unmarked) [compound 12]
> 75%: mortality at 300 ppm (Nephotettix virescens) | mortality at 2500 ppm (Megoura viciae) | mortality at 300 ppm (aphis craccivora) | mortality at 300 ppm (Aphis gossypii) | mortality at 300 ppm (Myzus persicae [2])
